Test results taken from publication PMC11129182, “Development of Inhibitors, Probes, and PROTAC Provides a Complete Toolbox to Study PARK7 in the Living Cell” (Journal of Medicinal Chemistry, 2024).

What follows are compounds tested against T1, PARK7 (Homo sapiens, UniProt Q99497) (assay: High-throughput screen of the crude compound library, PARK7 fluorescence polarization (FP) assay with FP reagent JYQ-107). Details: 1.25 µM, crude compound library, FP reagent JYQ-107; read-out: HTS FP assay %Inhibition (1.25 µM).
T1 sequence (Q99497 1-189): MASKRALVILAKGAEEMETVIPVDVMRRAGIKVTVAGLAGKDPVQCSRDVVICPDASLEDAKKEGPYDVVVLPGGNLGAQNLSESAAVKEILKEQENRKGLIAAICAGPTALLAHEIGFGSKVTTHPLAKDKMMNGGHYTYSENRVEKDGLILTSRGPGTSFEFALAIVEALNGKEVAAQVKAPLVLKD
Assay type: biochemical
In the case of `C#CCCCC(=O)N1CCc2nc(NC(=O)[C@@H]3CCN(C#N)C3)sc2C1` [compound 416], the inhibition at 1.25 µM is reported as 75.5%. For `N#CN1CC[C@@H](C(=O)Nc2nc3c(s2)CN(C(=O)CCc2cccnc2)CC3)C1` [compound 445], the inhibition at 1.25 µM was 62.7%. Compound `N#CN1CC[C@@H](C(=O)Nc2nc3c(s2)CN(C(=O)c2nn(-c4ccccc4)c(=O)[nH]c2=O)CC3)C1` [compound 359] has an inhibition at 1.25 µM of 67.9%. With `COCC(=O)N1CCc2nc(NC(=O)[C@@H]3CCN(C#N)C3)sc2C1` [compound 467] the inhibition at 1.25 µM was 67.9%. `N#CN1CC[C@@H](C(=O)Nc2nc3c(s2)CN(C(=O)C(c2ccccc2)n2cccc2)CC3)C1` (some centres unmarked) [compound 375] showed an inhibition at 1.25 µM of 68.5%. For `CC(=O)C(=O)N1CCc2nc(NC(=O)[C@@H]3CCN(C#N)C3)sc2C1` [compound 466], the inhibition at 1.25 µM was 58.5%. `N#CN1CC[C@@H](C(=O)Nc2nc3c(s2)CN(C(=O)CCCCCBr)CC3)C1` [compound 412] was tested, and the inhibition at 1.25 µM was 52.5%. `Cn1nc(C2CCC2)cc1C(=O)N1CCc2nc(NC(=O)[C@@H]3CCN(C#N)C3)sc2C1` [compound 350] was tested, and the inhibition at 1.25 µM was 84.3%. Work on `N#CN1CC[C@@H](C(=O)Nc2nc3c(s2)CN(C(=O)c2cccc4cc5ccccc5cc24)CC3)C1` [compound 456] yielded an inhibition at 1.25 µM of 80.6%. For `CC(C)(C)OC(=O)Nc1ccccc1C(=O)N1CCc2nc(NC(=O)[C@@H]3CCN(C#N)C3)sc2C1` [compound 396], the inhibition at 1.25 µM was 65.2%. For `N#CN1CC[C@@H](C(=O)Nc2nc3c(s2)CN(C(=O)C2CCCCN2S(=O)(=O)c2ccc(Br)s2)CC3)C1` (some centres unmarked) [compound 377], the inhibition at 1.25 µM was 76.2%. `N#CN1CC[C@@H](C(=O)Nc2nc3c(s2)CN(C(=O)c2cccc(Oc4nccs4)c2)CC3)C1` [compound 351] gave an inhibition at 1.25 µM of 88.9%. With `N#CN1CC[C@@H](C(=O)Nc2nc3c(s2)CN(C(=O)CCc2ccccc2)CC3)C1` [compound 459] the inhibition at 1.25 µM was 72.7%. `C#CCCC(=O)N1CCc2nc(NC(=O)[C@@H]3CCN(C#N)C3)sc2C1` [compound 401] was tested, and the inhibition at 1.25 µM was 82.4%. Work on `N#CN1CC[C@@H](C(=O)Nc2nc3c(s2)CN(C(=O)c2cccnc2-n2cccn2)CC3)C1` [compound 348] yielded an inhibition at 1.25 µM of 71.9%. `CC(C)n1nccc1[C@@H]1OCC[C@H]1C(=O)N1CCc2nc(NC(=O)[C@@H]3CCN(C#N)C3)sc2C1` [compound 367] gave an inhibition at 1.25 µM of 65%. Compound `Cn1cc(-c2nc(C(=O)N3CCc4nc(NC(=O)[C@@H]5CCN(C#N)C5)sc4C3)cs2)cn1` [compound 360] has an inhibition at 1.25 µM of 72.2%. Compound `N#CN1CC[C@@H](C(=O)Nc2nc3c(s2)CN(C(=O)C(Cl)(Cl)Cl)CC3)C1` [compound 460] has an inhibition at 1.25 µM of 6.9%. In the case of `Cc1ccccc1-n1cc(C(=O)N2CCc3nc(NC(=O)[C@@H]4CCN(C#N)C4)sc3C2)cn1` [compound 347], the inhibition at 1.25 µM is reported as 87.5%. `Cc1ccc(Br)c(C(=O)N2CCc3nc(NC(=O)[C@@H]4CCN(C#N)C4)sc3C2)c1` [compound 420] showed an inhibition at 1.25 µM of 83.3%. `N#CN1CC[C@@H](C(=O)Nc2nc3c(s2)CN(C(=O)CCCCBr)CC3)C1` [compound 410] showed an inhibition at 1.25 µM of 47.7%. For `CC(C)CC(=O)N1CCc2nc(NC(=O)[C@@H]3CCN(C#N)C3)sc2C1` [compound 390], the inhibition at 1.25 µM was 67.9%.

Same assay, conditions: 1.25 µM, crude compound library; read-out: HTS FP assay %Inhibition (1.25 µM)
`N#CN1CC[C@@H](C(=O)Nc2nc3c(s2)CN(C(=O)c2cccn2Cc2ccccn2)CC3)C1` [compound 332] was tested, and the inhibition at 1.25 µM was 73.2%. For `COc1ccc(C(=O)N2CCc3nc(NC(=O)[C@@H]4CCN(C#N)C4)sc3C2)cc1S(=O)(=O)NCCc1ccccn1` [compound 175], the inhibition at 1.25 µM was 78.6%. `Cc1nc(-c2c(C)c(C)nn(C)c2=O)sc1C(=O)N1CCc2nc(NC(=O)[C@@H]3CCN(C#N)C3)sc2C1` [compound 69] was tested, and the inhibition at 1.25 µM was 70.5%. Compound `N#CN1CC[C@@H](C(=O)Nc2nc3c(s2)CN(C(=O)c2ccccc2OCc2cccs2)CC3)C1` [compound 325] has an inhibition at 1.25 µM of 86.9%. Work on `N#CN1CC[C@@H](C(=O)Nc2nc3c(s2)CN(C(=O)c2sccc2S(=O)(=O)NC2CCCCCC2)CC3)C1` [compound 284] yielded an inhibition at 1.25 µM of 75.9%. With `N#CN1CC[C@@H](C(=O)Nc2nc3c(s2)CN(C(=O)Cc2cnn(Cc4ccccc4)c2)CC3)C1` [compound 303] the inhibition at 1.25 µM was 80.8%. In the case of `CN(Cc1ccccc1)C(=O)N1CCC(C(=O)N2CCc3nc(NC(=O)[C@@H]4CCN(C#N)C4)sc3C2)CC1` [compound 250], the inhibition at 1.25 µM is reported as 67.7%. Compound `N#CN1CC[C@@H](C(=O)Nc2nc3c(s2)CN(C(=O)c2cnn(-c4ccncc4)c2)CC3)C1` [compound 41] has an inhibition at 1.25 µM of 66.3%. `Cc1cccc(C(=O)N2CCCCC2C(=O)N2CCc3nc(NC(=O)[C@@H]4CCN(C#N)C4)sc3C2)n1` (some centres unmarked) [compound 68] gave an inhibition at 1.25 µM of 66.5%. `COc1ccc(CC(=O)N2CCc3nc(NC(=O)[C@@H]4CCN(C#N)C4)sc3C2)cc1S(=O)(=O)N1CCOCC1` [compound 257] was tested, and the inhibition at 1.25 µM was 75.5%. Work on `N#CN1CC[C@@H](C(=O)Nc2nc3c(s2)CN(C(=O)c2cnn(CC4CCCCO4)c2)CC3)C1` (some centres unmarked) [compound 90] yielded an inhibition at 1.25 µM of 81.3%. With `N#CN1CC[C@@H](C(=O)Nc2nc3c(s2)CN(C(=O)C2CC4CCC2O4)CC3)C1` (some centres unmarked) [compound 273] the inhibition at 1.25 µM was 67.4%. For `N#CN1CC[C@@H](C(=O)Nc2nc3c(s2)CN(C(=O)C2(n4cnnn4)CCOCC2)CC3)C1` [compound 36], the inhibition at 1.25 µM was 65.2%. Compound `N#CN1CC[C@@H](C(=O)Nc2nc3c(s2)CN(C(=O)c2cc(C4CC4)n[nH]2)CC3)C1` [compound 209] has an inhibition at 1.25 µM of 86.7%. In the case of `N#CN1CC[C@@H](C(=O)Nc2nc3c(s2)CN(C(=O)C2CCCN(c4ncccn4)C2)CC3)C1` (some centres unmarked) [compound 329], the inhibition at 1.25 µM is reported as 71.1%. In the case of `Cc1ccc(N(CCC(=O)N2CCc3nc(NC(=O)[C@@H]4CCN(C#N)C4)sc3C2)S(=O)(=O)c2ccccc2)cc1` [compound 79], the inhibition at 1.25 µM is reported as 87.6%. Compound `N#CN1CC[C@@H](C(=O)Nc2nc3c(s2)CN(C(=O)CC2(Cn4cnnn4)CCCCC2)CC3)C1` [compound 233] has an inhibition at 1.25 µM of 77.5%. For `N#CN1CC[C@@H](C(=O)Nc2nc3c(s2)CN(C(=O)c2csc(-c4ccncc4)n2)CC3)C1` [compound 214], the inhibition at 1.25 µM was 59.5%. `CN(Cc1ccnn1C)C(=O)C1CCCCC1C(=O)N1CCc2nc(NC(=O)[C@@H]3CCN(C#N)C3)sc2C1` (some centres unmarked) [compound 193] showed an inhibition at 1.25 µM of 73%. `CCC(C(=O)N1CCc2nc(NC(=O)[C@@H]3CCN(C#N)C3)sc2C1)n1nnc(-c2ccsc2)n1` (some centres unmarked) [compound 25] was tested, and the inhibition at 1.25 µM was 65.2%. `CCn1cc(S(=O)(=O)N2CCC(C(=O)N3CCc4nc(NC(=O)[C@@H]5CCN(C#N)C5)sc4C3)CC2)cn1` [compound 38] showed an inhibition at 1.25 µM of 69%. `N#CN1CC[C@@H](C(=O)Nc2nc3c(s2)CN(C(=O)c2ccc(-n4ncc(Cl)c(Cl)c4=O)cc2)CC3)C1` [compound 102] was tested, and the inhibition at 1.25 µM was 69.3%. Work on `N#CN1CC[C@@H](C(=O)Nc2nc3c(s2)CN(C(=O)c2sccc2S(=O)(=O)NCc2ccco2)CC3)C1` [compound 236] yielded an inhibition at 1.25 µM of 58.7%. In the case of `COc1ccc(CN2CCC2C(=O)N2CCc3nc(NC(=O)[C@@H]4CCN(C#N)C4)sc3C2)cc1` (some centres unmarked) [compound 228], the inhibition at 1.25 µM is reported as 62.2%. For `Cc1ccc(S(=O)(=O)N[C@@H](Cc2ccccc2)C(=O)N2CCc3nc(NC(=O)[C@@H]4CCN(C#N)C4)sc3C2)cc1` [compound 207], the inhibition at 1.25 µM was 70%. `Cc1nc(-c2cc(C)n(CCC(=O)N3CCc4nc(NC(=O)[C@@H]5CCN(C#N)C5)sc4C3)c2C)cs1` [compound 196] gave an inhibition at 1.25 µM of 61.7%. `N#CN1CC[C@@H](C(=O)Nc2nc3c(s2)CN(C(=O)c2cnnn2-c2ccccc2Cl)CC3)C1` [compound 40] was tested, and the inhibition at 1.25 µM was 68.9%. Work on `N#CN1CC[C@@H](C(=O)Nc2nc3c(s2)CN(C(=O)c2cc(COc4ccc(F)cc4F)on2)CC3)C1` [compound 335] yielded an inhibition at 1.25 µM of 79.4%. With `N#CN1CC[C@@H](C(=O)Nc2nc3c(s2)CN(C(=O)c2ccc(S(=O)(=O)NC4CC4)cc2)CC3)C1` [compound 48] the inhibition at 1.25 µM was 79.8%. In the case of `N#CN1CC[C@@H](C(=O)Nc2nc3c(s2)CN(C(=O)Cc2ccc(NS(=O)(=O)c4c(Cl)cccc4Cl)cc2)CC3)C1` [compound 57], the inhibition at 1.25 µM is reported as 84.9%. `N#CN1CC[C@@H](C(=O)Nc2nc3c(s2)CN(C(=O)c2ccc(-n4cccn4)cc2)CC3)C1` [compound 203] was tested, and the inhibition at 1.25 µM was 70.1%. For `N#CN1CC[C@@H](C(=O)Nc2nc3c(s2)CN(C(=O)c2ccc(F)c(S(=O)(=O)N4CCC4)c2)CC3)C1` [compound 221], the inhibition at 1.25 µM was 94.8%. For `Cc1csc(N2CCC(C(=O)N3CCc4nc(NC(=O)[C@@H]5CCN(C#N)C5)sc4C3)CC2)n1` [compound 190], the inhibition at 1.25 µM was 51.8%. Compound `N#CN1CC[C@@H](C(=O)Nc2nc3c(s2)CN(C(=O)Cc2cnn(-c4ccccc4)c2)CC3)C1` [compound 148] has an inhibition at 1.25 µM of 80.2%. Compound `COc1cc(C(=O)N2CCc3nc(NC(=O)[C@@H]4CCN(C#N)C4)sc3C2)ccc1OCc1c(C)noc1C` [compound 63] has an inhibition at 1.25 µM of 72.7%. `Cc1oc(Cn2cc(Br)cn2)cc1C(=O)N1CCc2nc(NC(=O)[C@@H]3CCN(C#N)C3)sc2C1` [compound 72] showed an inhibition at 1.25 µM of 87%. For `Cn1cc(-c2ccc(C(=O)N3CCc4nc(NC(=O)[C@@H]5CCN(C#N)C5)sc4C3)o2)cn1` [compound 220], the inhibition at 1.25 µM was 27.6%. In the case of `N#CN1CC[C@@H](C(=O)Nc2nc3c(s2)CN(C(=O)c2cn(CC4CCCO4)nn2)CC3)C1` (some centres unmarked) [compound 186], the inhibition at 1.25 µM is reported as 83.8%. Compound `N#CN1CC[C@@H](C(=O)Nc2nc3c(s2)CN(C(=O)c2ccc(Cn4cncn4)cc2)CC3)C1` [compound 159] has an inhibition at 1.25 µM of 80.2%. `N#CN1CC[C@@H](C(=O)Nc2nc3c(s2)CN(C(=O)C2=NNC(=O)C2c2ccccc2)CC3)C1` (some centres unmarked) [compound 168] was tested, and the inhibition at 1.25 µM was 80.3%. `Cc1ncsc1C(=O)N(C)c1ccccc1C(=O)N1CCc2nc(NC(=O)[C@@H]3CCN(C#N)C3)sc2C1` [compound 308] was tested, and the inhibition at 1.25 µM was 64.6%. In the case of `Cn1ccnc1CN1CCC(C(=O)N2CCc3nc(NC(=O)[C@@H]4CCN(C#N)C4)sc3C2)CC1` [compound 265], the inhibition at 1.25 µM is reported as 70.6%. With `CN(C)S(=O)(=O)c1ccc(N2CCCCC2)c(C(=O)N2CCc3nc(NC(=O)[C@@H]4CCN(C#N)C4)sc3C2)c1` [compound 297] the inhibition at 1.25 µM was 56.1%.
